Measured values as given in ChEMBL document CHEMBL2150935, “Synthesis, biological evaluation and chemometric analysis of indazole derivatives. 1,2-Disubstituted 5-nitroindazolinones, new prototypes of antichagasic drug” (Eur J Med Chem, 2012).

Legend:
[1] = Growth inhibition of mouse J774 cells at 4 uM after 24 hrs by resazurin reduction assay; type: cell-based; details: read-out: GI
[2] = system: Trypanosoma cruzi; experiment: Growth inhibition of epimastigote form of Trypanosoma cruzi CL-B5 at 4 uM after 72 hrs by lacZ reporter gene assay; type: functional; details: CL-B5, 72 h, read-out: GI
[3] = Growth inhibition of mouse J774 cells at 128 uM after 24 hrs by resazurin reduction assay; type: cell-based; details: read-out: GI
[4] = Growth inhibition of mouse J774 cells at 16 uM after 24 hrs by resazurin reduction assay; type: cell-based; details: read-out: GI
[5] = system: Trypanosoma cruzi; experiment: Growth inhibition of epimastigote form of Trypanosoma cruzi CL-B5 at 128 uM after 72 hrs by lacZ reporter gene assay; type: functional; details: CL-B5, 72 h, read-out: GI
[6] = system: Trypanosoma cruzi; experiment: Growth inhibition of epimastigote form of Trypanosoma cruzi CL-B5 at 256 uM after 72 hrs by lacZ reporter gene assay; type: functional; details: CL-B5, 72 h, read-out: GI
[7] = system: Trypanosoma cruzi; experiment: Growth inhibition of epimastigote form of Trypanosoma cruzi CL-B5 at 1 uM after 72 hrs by lacZ reporter gene assay; type: functional; details: CL-B5, 72 h, read-out: GI
[8] = system: Trypanosoma cruzi; experiment: Growth inhibition of epimastigote form of Trypanosoma cruzi CL-B5 at 64 uM after 72 hrs by lacZ reporter gene assay; type: functional; details: CL-B5, 72 h, read-out: GI
[9] = Growth inhibition of mouse J774 cells at 32 uM after 24 hrs by resazurin reduction assay; type: cell-based; details: read-out: GI
[10] = system: Trypanosoma cruzi; experiment: Growth inhibition of epimastigote form of Trypanosoma cruzi CL-B5 at 8 uM after 72 hrs by lacZ reporter gene assay; type: functional; details: CL-B5, 72 h, read-out: GI
[11] = Growth inhibition of mouse J774 cells at 2 uM after 24 hrs by resazurin reduction assay; type: cell-based; details: read-out: GI
[12] = system: Trypanosoma cruzi; experiment: Growth inhibition of epimastigote form of Trypanosoma cruzi CL-B5 after 72 hrs by lacZ reporter gene assay; type: functional, organism-based; details: CL-B5, 72 h
[13] = system: Trypanosoma cruzi; experiment: Growth inhibition of epimastigote form of Trypanosoma cruzi CL-B5 at 32 uM after 72 hrs by lacZ reporter gene assay; type: functional; details: CL-B5, 72 h, read-out: GI
[14] = Growth inhibition of mouse J774 cells at 8 uM after 24 hrs by resazurin reduction assay; type: cell-based; details: read-out: GI
[15] = system: Trypanosoma cruzi; experiment: Growth inhibition of epimastigote form of Trypanosoma cruzi CL-B5 at 2 uM after 72 hrs by lacZ reporter gene assay; type: functional; details: CL-B5, 72 h, read-out: GI
[16] = Growth inhibition of mouse J774 cells at 256 uM after 24 hrs by resazurin reduction assay; type: cell-based; details: read-out: GI
[17] = Growth inhibition of mouse J774 cells at 1 uM after 24 hrs by resazurin reduction assay; type: cell-based; details: read-out: GI
[18] = Growth inhibition of mouse J774 cells at 64 uM after 24 hrs by resazurin reduction assay; type: cell-based; details: read-out: GI
[19] = system: Trypanosoma cruzi; experiment: Growth inhibition of epimastigote form of Trypanosoma cruzi CL-B5 at 16 uM after 72 hrs by lacZ reporter gene assay; type: functional; details: CL-B5, 72 h, read-out: GI
[20] = system: Trypanosoma cruzi; experiment: Growth inhibition of epimastigote form of Trypanosoma cruzi CL-B5 at 2.5 uM after 72 hrs by lacZ reporter gene assay; type: functional; details: CL-B5, 72 h, read-out: GI
[21] = Growth inhibition of mouse J774 cells at 1.25 uM after 24 hrs by resazurin reduction assay; type: cell-based; details: read-out: GI
[22] = Growth inhibition of mouse J774 cells at 5 uM after 24 hrs by resazurin reduction assay; type: cell-based; details: read-out: GI
[23] = system: Trypanosoma cruzi; experiment: Growth inhibition of epimastigote form of Trypanosoma cruzi CL-B5 at 5 uM after 72 hrs by lacZ reporter gene assay; type: functional; details: CL-B5, 72 h, read-out: GI
[24] = system: Trypanosoma cruzi; experiment: Growth inhibition of epimastigote form of Trypanosoma cruzi CL-B5 at 0.625 uM after 72 hrs by lacZ reporter gene assay; type: functional; details: CL-B5, 72 h, read-out: GI
[25] = Growth inhibition of mouse J774 cells at 0.625 uM after 24 hrs by resazurin reduction assay; type: cell-based; details: read-out: GI
[26] = system: Trypanosoma cruzi; experiment: Growth inhibition of epimastigote form of Trypanosoma cruzi CL-B5 at 1.25 uM after 72 hrs by lacZ reporter gene assay; type: functional; details: CL-B5, 72 h, read-out: GI
[27] = Growth inhibition of mouse J774 cells at 2.5 uM after 24 hrs by resazurin reduction assay; type: cell-based; details: read-out: GI

SMILES | inhibition at 24 h, 128 µM [3] [%] | inhibition at 24 h, 16 µM [4] [%] | inhibition of growth at 128 µM [5] [%] | inhibition of growth at 256 µM [6] [%] | inhibition of growth at 64 µM [8] [%] | inhibition at 24 h, 32 µM [9] [%] | inhibition of growth at 8 µM [10] [%] | IC50 [12] [nM] | inhibition of growth at 32 µM [13] [%] | inhibition at 24 h, 8 µM [14] [%] | inhibition at 24 h, 256 µM [16] [%] | inhibition at 24 h, 64 µM [18] [%] | inhibition of growth at 16 µM [19] [%] | inhibition of growth at 2.5 µM [20] [%] | inhibition at 24 h, 1.25 µM [21] [%] | inhibition at 24 h, 5 µM [22] [%] | inhibition of growth at 5 µM [23] [%] | inhibition of growth at 0.625 µM [24] [%] | inhibition at 24 h, 0.625 µM [25] [%] | inhibition of growth at 1.25 µM [26] [%] | other results
CC(C)n1c2ccc([N+](=O)[O-])cc2c(=O)n1Cc1ccccc1 | 0 | 0 | 88.3 | 90.4 | 87.6 | 0 | 80.3 | 2390 | 100 | 10.3 | 0 | 14.5 | 97.6 | – | – | – | – | – | – | – | inhibition at 24 h, 4 µM [1]: 65.2%; inhibition of growth at 4 µM [2]: 4.11%; inhibition of growth at 1 µM [7]: 28%; inhibition at 24 h, 2 µM [11]: 8.76%; inhibition of growth at 2 µM [15]: 37.4%; inhibition at 24 h, 1 µM [17]: 5.87%
CCCn1c2ccc([N+](=O)[O-])cc2c(=O)n1Cc1ccccc1 | 0 | 0 | 92.8 | 94.8 | 92.7 | 0 | 100 | 930 | 100 | 0 | 0 | 0 | 100 | 59.8 | 0.14 | 0.64 | 61.5 | 56.2 | 4.18 | 59.5 | inhibition at 24 h, 2.5 µM [27]: 0.85%
CCCCn1c2ccc([N+](=O)[O-])cc2c(=O)n1Cc1ccccc1 | 67.5 | 7.92 | 88.3 | 84 | 82.8 | 27.1 | 93 | 1170 | 100 | 7.65 | 81.6 | 33.3 | 100 | 58.2 | 5.37 | 2.36 | 61.7 | 49.7 | 0.14 | 55.9 | inhibition at 24 h, 2.5 µM [27]: 1.92%
